From US20120130146A1, “CONTINUOUS ADMINISTRATION OF CILENGITIDE IN CANCER TREATMENTS” (Merck Patent GmbH, priority 2009, published 2012)

Tests used:
[1] = test system: advanced solid malignancy; assay: Phase I study of continuous infusion EMD 121974 in patients with advanced solid malignancy (safety); format: in vivo
Description: Background: Integrins avβ3 and avβ5 are cell-surface receptors that play a significant role in angiogenesis by mediating the ligation signal that allows endothelial cells to attach to the extracellular matrix. These integrins share the binding epitope Arg-Gly-Asp (RGD). EMD is an RGD-containing cyclic pentapeptide. In clinical studies to date, EMD has been administered in an intermittent fashion. […] Methods: EMD was administered as a continuous infusion without break in 4-week cycles. Plasma samples for pharmacokinetic studies were obtained weekly in cycle 1 immediately prior to and 2 hours after infusion bag change. Results: To date 21 patients (15 male/6 female, median age 56, median Karnofsky performance status 90%) have been treated at the following dose levels: 1, 2, 4, 8, 12, 18, and 27 mg/h. […] Non-hematologic toxicities have been limited to grade<2 and include alopecia, anorexia, diarrhea, fatigue, hypokalemia, hyponatremia, hypophosphatemia, insomnia, mucositis, nail changes, nausea, and transaminase elevation. […] Pharmacokinetic analysis has been completed for patients treated at the 12 mg/h dose level and below. […] Conclusions: EMD can be safely administered as a continuous infusion at doses of up to at least 18 mg/h. No single toxicity has been consistently observed.

[2] = test system: human umbilical vein endothelial cells (HUVECs); assay: Growth (Alamar Blue) assay on HUVEC, Example 5; format: cell-based; settings: agent alone
Description: The methods established and described in detail previously (Goodman and Hahn a; b) were used to measure the effect of combinations of integrin inhibitors and chemotherapeutics on carcinoma cell and human endothelial cell proliferation.
Points were run in duplicate or in triplicate. Reagent blanks, containing media plus Alamar Blue without cells, were run on each plate. Blank values were subtracted from test values and were routinely 5-10% of uninhibited control values.
5.5 Methods of Evaluation and Statistics Chemotherapeutic agents and αv-integrin blockers were serially diluted alone or together (combination therapy). In some assays the chemotherapeutic agent was serially diluted alone or in combination with of alpha-v integrin blocker. Growth inhibition curves were plotted and a shift of the combination therapy curve to lower concentrations in relation to the single agent curves was interpreted as an additional effect, produced by combination versus monotherapy.
The αv-integrin competitive inhibitor Cilengitide (EMD 121974) was tested alone and in combination with vinorelbine in a serum growth stimulation assay using human carcinoma cells or human umbilical vein endothelial cells (HUVECs). In these assays cells are cultured in serum, or in an endothelial growth stimulation medium (Goodman & Hahn).

[3] = test system: newly diagnosed glioblastoma (GBM); assay: Phase I/IIa trial of cilengitide and temozolomide with concomitant radiotherapy in newly diagnosed glioblastoma; format: in vivo, human
Description: Purpose: To evaluate safety, toxicity, and efficacy of the combination of the cyclic RGD pentapeptide Cilengitide (=cyclo-(Arg-Gly-Asp-DPhe-NMe-Val)), an inhibitor of integrins avβ3 and avβ5, in addition to standard temozolomide (TMZ) and radiotherapy (RT).
Patients and methods: Fifty-two pts (PS 0-1: 92%, 2: 8%; median age 57 yrs) after biopsy (n=9/17%) or tumor resection (n=43/83%) were treated with standard TMZ/RT (Stupp et al. NEJM 2005). In addition Cilengitide (500 mg i.v., 2×/week) was started one week before TMZ/RT and given throughout for the duration of chemotherapy or until progression. Primary endpoint was progression free survival rate at 6 months (target: 65%). Patients were followed with MRI every 2 months. Histopathologic diagnosis and MRI imaging were independently reviewed, MGMT promotor methylation status was assessed in 45 (86.5%) pts.

various brain tumors = settings: cited from earlier work
[4] = human, in vivo; cited from earlier work
[5] = Cilengitide 500 mg i.v. 2x/week in addition to standard TMZ/RT

Structure (SMILES): CC(C)[C@H]1C(=O)N[C@@H](CCCN=C(N)N)C(=O)NCC(=O)N[C@@H](CC(=O)O)C(=O)N[C@H](Cc2ccccc2)C(=O)N1C [Cilengitide, cyclo-(Arg-Gly-Asp-DPhe-NMeVal)]
- dose that can be safely administered as a continuous infusion ([1]; human, in vivo): at least 18 mg/h
- patient death ([1]; one patient treated at 27 mg/h, after two weeks of therapy): unobserved death of unknown cause
- IC50 [2]: 700 nM
- haematological grade 3 and 4 toxicity: lymphopenia [3, 5]: 53.8%
- haematological grade 3 and 4 toxicity: neutropenia [3, 5]: 9.6%
- haematological grade 3 and 4 toxicity: thrombocytopenia [3, 5]: 13.4%
- patients with treatment related non-hematologic grade 3 toxicities [3, 5]: 5.7%
- patients progression free at 6 months (PFS-6) ([3]; all 52 pts, Cilengitide in addition to TMZ/RT): 65.4%
- tolerability ([3]; combination of Cilengitide and TMZ/RT): well tolerated
- PFS-6 rate ([3]; subgroup with methylated MGMT promoter (23/52), Cilengitide in addition to TMZ/RT): 91%
- PFS-6 rate ([3]; subgroup with unmethylated MGMT promotor (22/52), Cilengitide in addition to TMZ/RT): 40.9%
- MTD in humans (various brain tumors; human, in vivo): no known MTD
- tolerability (various brain tumors; human, in vivo): very well tolerated
- response in GBM patients (various brain tumors; some of the GBM patients): indication of response
- half-life [4]: 3 to 5 h
